Reference: ChEMBL document CHEMBL5465560, “Selectivity Literature for EUbOPEN Chemogenomic Library” (2024)

Tests used:
[1] = molecular target: Receptor-interacting serine/threonine-protein kinase 2 (Homo sapiens, UniProt O43353); assay: Selectivity interaction (KinomeScan (DiscoverX)) EUB0000666a RIPK2; settings: at 10 µM
[2] = molecular target: Ribosomal protein S6 kinase alpha-1 (Homo sapiens, UniProt Q15418); assay: Selectivity interaction (ActivX KiNativ screen (kinase selectivity in THP-1 cell lysates)) EUB0000639a RPS6KA1; format: subcellular; settings: lysate, at 5 µM
Sequence of Ribosomal protein S6 kinase alpha-1 (Q15418 whole entry, the tested form may be a part): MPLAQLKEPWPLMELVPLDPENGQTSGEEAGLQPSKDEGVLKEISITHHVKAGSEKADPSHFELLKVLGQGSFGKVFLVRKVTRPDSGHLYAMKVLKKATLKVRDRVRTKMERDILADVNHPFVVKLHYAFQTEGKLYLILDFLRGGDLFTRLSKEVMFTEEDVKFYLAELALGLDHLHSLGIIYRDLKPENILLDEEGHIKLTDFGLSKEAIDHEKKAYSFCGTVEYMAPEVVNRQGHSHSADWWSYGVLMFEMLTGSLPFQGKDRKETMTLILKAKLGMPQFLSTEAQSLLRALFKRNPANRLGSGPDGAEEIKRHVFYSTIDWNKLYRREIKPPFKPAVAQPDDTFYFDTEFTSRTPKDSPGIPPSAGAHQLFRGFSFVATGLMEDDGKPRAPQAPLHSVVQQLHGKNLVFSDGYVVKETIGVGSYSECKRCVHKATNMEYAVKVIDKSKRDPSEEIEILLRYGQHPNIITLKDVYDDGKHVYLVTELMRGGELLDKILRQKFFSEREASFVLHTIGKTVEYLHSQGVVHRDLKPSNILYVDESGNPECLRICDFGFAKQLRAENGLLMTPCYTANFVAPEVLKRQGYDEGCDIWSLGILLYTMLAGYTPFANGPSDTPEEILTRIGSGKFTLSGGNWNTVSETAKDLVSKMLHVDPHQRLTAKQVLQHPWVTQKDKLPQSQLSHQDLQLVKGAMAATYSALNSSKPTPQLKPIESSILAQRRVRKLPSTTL

[3] = molecular target: T1, Phosphatidylinositol 3-kinase C2 domain-containing subunit gamma (Homo sapiens) (UniProt O75747); assay: Selectivity interaction (KinomeScan (DiscoverX)) EUB0000092b PIK3C2G; settings: at 10 µM
T1 sequence (whole entry): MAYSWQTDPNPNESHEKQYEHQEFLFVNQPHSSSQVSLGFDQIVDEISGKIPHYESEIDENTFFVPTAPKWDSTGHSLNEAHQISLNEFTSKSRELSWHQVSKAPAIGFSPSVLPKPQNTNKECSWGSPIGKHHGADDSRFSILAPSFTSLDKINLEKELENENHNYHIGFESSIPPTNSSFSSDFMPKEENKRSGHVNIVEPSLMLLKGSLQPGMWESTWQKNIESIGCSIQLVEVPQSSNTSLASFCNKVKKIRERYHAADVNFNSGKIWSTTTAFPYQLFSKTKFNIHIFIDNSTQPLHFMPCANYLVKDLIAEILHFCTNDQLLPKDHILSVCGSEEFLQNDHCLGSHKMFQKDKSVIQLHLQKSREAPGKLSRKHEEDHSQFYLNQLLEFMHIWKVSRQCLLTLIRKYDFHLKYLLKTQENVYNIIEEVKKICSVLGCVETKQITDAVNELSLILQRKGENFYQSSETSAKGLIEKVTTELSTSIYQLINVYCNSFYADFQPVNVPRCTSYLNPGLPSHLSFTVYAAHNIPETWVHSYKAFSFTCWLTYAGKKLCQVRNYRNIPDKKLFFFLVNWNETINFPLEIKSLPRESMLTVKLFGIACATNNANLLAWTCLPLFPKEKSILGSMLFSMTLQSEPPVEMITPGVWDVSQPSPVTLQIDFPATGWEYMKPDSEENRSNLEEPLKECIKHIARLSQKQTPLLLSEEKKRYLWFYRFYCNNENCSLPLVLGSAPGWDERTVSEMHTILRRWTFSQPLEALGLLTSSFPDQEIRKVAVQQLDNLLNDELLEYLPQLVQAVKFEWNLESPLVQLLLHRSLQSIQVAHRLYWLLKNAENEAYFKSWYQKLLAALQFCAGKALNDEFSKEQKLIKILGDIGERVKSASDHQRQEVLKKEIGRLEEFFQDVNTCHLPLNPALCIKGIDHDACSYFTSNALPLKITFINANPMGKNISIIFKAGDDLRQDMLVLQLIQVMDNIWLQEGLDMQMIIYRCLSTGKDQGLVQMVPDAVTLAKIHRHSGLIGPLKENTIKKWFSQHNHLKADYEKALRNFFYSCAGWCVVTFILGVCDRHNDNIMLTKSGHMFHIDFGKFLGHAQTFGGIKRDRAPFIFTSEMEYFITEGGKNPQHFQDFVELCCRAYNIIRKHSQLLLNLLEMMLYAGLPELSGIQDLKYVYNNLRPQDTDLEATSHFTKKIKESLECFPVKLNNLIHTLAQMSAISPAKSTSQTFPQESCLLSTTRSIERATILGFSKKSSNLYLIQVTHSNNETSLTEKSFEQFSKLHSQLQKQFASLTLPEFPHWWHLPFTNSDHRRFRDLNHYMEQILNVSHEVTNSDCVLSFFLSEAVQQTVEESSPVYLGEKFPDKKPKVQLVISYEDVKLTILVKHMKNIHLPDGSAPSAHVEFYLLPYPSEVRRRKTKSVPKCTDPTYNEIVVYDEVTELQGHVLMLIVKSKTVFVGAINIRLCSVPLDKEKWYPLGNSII

[4] = molecular target: T2, Ephrin type-A receptor 6 (Homo sapiens) (UniProt Q9UF33); assay: Selectivity interaction (Ambit KINOMEscan and KiNATiv profiling in Jurkat cells) EUB0000090b EPHA6; format: cell-based; settings: at 1 µM
T2 sequence (whole entry): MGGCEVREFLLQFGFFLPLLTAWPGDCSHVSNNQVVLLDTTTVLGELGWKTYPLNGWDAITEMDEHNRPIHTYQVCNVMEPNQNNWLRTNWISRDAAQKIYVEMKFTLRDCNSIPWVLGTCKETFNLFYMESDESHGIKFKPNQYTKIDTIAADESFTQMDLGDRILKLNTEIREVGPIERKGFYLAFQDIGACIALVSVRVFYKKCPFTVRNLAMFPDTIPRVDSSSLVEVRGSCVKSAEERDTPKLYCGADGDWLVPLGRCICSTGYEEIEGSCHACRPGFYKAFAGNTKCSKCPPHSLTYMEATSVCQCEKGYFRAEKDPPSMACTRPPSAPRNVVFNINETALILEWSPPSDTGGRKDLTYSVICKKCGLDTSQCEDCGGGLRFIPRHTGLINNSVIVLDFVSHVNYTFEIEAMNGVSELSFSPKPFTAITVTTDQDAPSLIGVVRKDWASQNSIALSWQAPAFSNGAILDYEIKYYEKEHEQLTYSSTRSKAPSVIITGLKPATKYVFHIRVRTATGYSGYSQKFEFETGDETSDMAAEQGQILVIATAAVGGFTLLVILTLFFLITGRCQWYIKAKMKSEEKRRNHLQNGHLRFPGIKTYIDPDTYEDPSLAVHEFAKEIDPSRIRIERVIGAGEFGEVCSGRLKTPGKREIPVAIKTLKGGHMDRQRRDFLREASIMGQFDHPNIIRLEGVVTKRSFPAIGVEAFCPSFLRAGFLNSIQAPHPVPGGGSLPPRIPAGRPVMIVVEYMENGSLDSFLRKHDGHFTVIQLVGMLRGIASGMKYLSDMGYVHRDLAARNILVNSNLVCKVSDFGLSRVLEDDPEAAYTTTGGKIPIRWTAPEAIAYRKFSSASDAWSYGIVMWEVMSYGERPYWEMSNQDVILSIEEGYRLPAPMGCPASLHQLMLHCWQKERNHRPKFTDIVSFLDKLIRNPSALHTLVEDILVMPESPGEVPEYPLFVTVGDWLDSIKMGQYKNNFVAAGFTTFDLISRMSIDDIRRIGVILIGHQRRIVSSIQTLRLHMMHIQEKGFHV

[5] = molecular target: Receptor tyrosine-protein kinase erbB-4 (Homo sapiens, UniProt Q15303); assay: Selectivity interaction (Upstate Kinase Profiler service (Millipore)) EUB0000056c ERBB4; settings: at 1 µM
Sequence of Receptor tyrosine-protein kinase erbB-4 (Q15303 whole entry): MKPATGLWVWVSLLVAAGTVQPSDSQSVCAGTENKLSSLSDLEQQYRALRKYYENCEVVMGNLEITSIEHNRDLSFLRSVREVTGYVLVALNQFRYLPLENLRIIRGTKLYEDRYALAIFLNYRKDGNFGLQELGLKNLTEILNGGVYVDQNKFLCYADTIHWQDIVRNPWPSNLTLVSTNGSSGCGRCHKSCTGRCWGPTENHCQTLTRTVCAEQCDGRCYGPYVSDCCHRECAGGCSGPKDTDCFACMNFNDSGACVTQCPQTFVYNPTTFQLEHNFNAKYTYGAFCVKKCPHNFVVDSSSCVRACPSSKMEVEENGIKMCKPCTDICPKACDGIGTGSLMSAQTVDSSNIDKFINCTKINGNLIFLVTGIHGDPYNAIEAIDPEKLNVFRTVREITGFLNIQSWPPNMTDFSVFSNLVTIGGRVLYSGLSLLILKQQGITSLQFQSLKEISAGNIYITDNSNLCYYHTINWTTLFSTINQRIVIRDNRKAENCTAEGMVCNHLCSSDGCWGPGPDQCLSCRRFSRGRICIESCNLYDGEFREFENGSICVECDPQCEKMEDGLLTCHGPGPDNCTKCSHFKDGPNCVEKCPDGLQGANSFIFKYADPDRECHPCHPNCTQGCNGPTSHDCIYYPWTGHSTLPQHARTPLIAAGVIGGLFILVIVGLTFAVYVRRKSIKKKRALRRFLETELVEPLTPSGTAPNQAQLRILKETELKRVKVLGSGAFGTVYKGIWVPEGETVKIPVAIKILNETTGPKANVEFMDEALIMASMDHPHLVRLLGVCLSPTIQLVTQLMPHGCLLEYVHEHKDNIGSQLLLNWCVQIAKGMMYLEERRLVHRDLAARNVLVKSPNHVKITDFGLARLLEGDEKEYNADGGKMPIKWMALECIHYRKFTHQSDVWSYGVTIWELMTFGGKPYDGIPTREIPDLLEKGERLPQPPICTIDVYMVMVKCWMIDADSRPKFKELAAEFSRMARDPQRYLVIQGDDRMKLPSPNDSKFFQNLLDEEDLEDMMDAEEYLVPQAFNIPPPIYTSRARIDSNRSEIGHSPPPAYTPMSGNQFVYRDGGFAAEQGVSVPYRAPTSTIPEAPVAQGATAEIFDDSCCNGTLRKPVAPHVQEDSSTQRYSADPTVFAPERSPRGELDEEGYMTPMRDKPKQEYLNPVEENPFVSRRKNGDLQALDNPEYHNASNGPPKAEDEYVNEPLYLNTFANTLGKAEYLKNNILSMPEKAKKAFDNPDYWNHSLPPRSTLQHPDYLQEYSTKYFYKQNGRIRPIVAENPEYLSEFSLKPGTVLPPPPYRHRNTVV

[6] = molecular target: Phosphatidylinositol 4-kinase alpha (Homo sapiens, UniProt P42356); assay: Selectivity interaction (Adapta Assay) EUB0001632a PI4KA; settings: at 10 µM
Sequence of Phosphatidylinositol 4-kinase alpha (P42356 whole entry, looked up): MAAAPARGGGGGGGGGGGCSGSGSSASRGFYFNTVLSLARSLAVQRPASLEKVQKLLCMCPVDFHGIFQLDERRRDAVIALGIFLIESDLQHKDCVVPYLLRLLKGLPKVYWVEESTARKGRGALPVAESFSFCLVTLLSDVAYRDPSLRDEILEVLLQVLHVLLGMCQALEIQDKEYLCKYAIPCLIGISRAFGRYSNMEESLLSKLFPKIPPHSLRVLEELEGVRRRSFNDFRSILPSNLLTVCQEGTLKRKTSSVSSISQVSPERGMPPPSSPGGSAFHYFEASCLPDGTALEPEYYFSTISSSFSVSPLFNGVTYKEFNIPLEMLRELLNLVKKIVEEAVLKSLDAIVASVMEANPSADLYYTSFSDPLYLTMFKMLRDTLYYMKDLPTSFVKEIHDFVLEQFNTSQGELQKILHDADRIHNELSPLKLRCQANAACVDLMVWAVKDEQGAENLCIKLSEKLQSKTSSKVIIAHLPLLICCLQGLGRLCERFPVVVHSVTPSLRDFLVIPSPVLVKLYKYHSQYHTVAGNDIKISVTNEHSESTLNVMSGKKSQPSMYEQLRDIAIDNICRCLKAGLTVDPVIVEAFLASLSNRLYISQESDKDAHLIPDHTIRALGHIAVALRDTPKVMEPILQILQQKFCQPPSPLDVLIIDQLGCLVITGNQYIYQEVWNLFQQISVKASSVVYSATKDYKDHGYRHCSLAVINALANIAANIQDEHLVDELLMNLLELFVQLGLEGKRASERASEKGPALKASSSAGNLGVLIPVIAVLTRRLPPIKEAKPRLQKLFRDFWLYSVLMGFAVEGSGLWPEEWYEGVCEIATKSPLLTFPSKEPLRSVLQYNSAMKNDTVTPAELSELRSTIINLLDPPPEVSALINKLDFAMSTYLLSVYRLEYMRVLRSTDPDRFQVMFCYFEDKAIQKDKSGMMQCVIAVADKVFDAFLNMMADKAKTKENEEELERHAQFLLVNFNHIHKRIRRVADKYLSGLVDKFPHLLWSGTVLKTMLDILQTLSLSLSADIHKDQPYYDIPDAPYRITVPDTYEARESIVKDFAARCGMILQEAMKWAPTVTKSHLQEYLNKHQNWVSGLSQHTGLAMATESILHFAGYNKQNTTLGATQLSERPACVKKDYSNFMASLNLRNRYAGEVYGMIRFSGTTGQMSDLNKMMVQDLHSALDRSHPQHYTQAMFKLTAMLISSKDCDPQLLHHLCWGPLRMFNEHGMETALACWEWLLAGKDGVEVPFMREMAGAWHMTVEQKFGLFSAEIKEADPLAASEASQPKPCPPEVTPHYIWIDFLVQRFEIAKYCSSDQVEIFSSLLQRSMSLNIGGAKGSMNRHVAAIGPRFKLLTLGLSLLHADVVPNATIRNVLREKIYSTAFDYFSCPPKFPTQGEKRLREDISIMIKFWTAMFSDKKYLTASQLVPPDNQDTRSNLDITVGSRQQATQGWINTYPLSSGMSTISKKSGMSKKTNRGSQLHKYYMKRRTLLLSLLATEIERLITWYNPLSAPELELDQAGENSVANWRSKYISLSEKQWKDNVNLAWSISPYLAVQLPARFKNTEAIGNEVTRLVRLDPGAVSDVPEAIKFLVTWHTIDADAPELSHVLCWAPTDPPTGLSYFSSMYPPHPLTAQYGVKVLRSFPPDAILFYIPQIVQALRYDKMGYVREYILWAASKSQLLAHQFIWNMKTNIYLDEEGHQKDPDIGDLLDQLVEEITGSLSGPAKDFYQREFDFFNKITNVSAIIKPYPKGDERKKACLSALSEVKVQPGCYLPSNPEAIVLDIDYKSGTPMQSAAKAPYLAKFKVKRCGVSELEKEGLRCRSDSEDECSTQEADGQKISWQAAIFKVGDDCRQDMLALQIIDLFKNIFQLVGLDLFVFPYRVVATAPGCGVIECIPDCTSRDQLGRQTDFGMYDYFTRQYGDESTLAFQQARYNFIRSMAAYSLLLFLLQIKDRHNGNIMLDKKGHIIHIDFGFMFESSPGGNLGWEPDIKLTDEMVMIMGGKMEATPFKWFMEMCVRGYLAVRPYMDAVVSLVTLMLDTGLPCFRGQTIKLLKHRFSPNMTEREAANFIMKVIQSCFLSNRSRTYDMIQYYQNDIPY

Sequence of Receptor-interacting serine/threonine-protein kinase 2 (O43353 whole entry): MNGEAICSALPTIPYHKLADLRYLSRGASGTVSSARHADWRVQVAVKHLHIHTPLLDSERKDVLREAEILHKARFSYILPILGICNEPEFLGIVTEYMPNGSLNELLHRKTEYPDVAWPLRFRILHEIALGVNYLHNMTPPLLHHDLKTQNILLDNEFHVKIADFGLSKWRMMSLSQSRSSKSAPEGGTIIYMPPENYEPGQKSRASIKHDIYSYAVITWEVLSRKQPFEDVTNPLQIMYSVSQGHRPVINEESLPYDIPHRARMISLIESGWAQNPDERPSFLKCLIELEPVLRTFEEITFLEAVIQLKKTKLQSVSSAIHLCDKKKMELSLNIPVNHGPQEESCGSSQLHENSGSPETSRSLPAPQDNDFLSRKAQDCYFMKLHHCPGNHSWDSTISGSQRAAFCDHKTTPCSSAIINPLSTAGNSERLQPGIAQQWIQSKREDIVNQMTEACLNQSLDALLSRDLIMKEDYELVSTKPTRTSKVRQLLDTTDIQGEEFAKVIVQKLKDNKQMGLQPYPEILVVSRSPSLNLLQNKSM

## O=C(NOC[C@H](O)CO)c1ccc(F)c(F)c1Nc1ccc(I)cc1F
[1]
  % of control: 66%

## CC[C@@H]1[C@H](F)C(=O)N[C@@H]1COc1nccc2cc(C(N)=O)c(OC)cc12 [ZIMLOVISERTIB]
[2]
  % of inhibition: -38%

## CCC(=O)N1CCN(c2ccc(-n3c(=O)ccc4cnc5ccc(-c6cnc7ccccc7c6)cc5c43)cc2C(F)(F)F)CC1
[3]
  % of control: 11%

## CN(C)C/C=C/C(=O)Nc1ccc(C(=O)N2CCCC(Nc3ncc(Cl)c(-c4c[nH]c5ccccc45)n3)C2)cc1 (stereo unspecified)
[4]
  % of control: 93%

## Cc1ccc(-c2ccc3c(ccc4sc5c(c43)NC[C@@H](C)NC5=O)n2)cn1
[5]
  % of inhibition: 12%

## Cn1cc(-n2cnc3c(NCc4nc5cc(Cl)c(Cl)cc5[nH]4)nc(N4CCOCC4)nc32)cn1
[6]
  % of inhibition: -3.32%
